# Results as given in patent publication US11857601B2, “Pharmaceutical composition for cancer treatment comprising fusion protein including IL-2 protein and CD80 protein and anticancer drug” (GI INNOVATION, INC., priority 2020, dated 2024).
# Tests used:
# MC38 cells = experiment: mGI-101 and DMXAA in MC38 allotransplanted tumor model; assay type: in vivo, C57BL/6 mice; conditions: day 60 after tumor injection; mGI-101 6 mg/kg i.p. BIW, DMXAA 450 μg I.T.; 5 mice per group
# Method: In order to establish an allotransplanted tumor model, 5×10^5 of MC38 cells were subcutaneously injected into C57BL/6 mice. The tumor grafts of the mice were identified to be a size of 100-200 mm^3 about day 10 after cell inoculation, and the mice were assigned, each group including 5 mice.
# The size of the MC38 solid cancer was measured three times a week during the observation period, and the major axis (maximum length, L) and minor axis (perpendicular width, W) of the tumor were measured using a caliper, and the tumor volume (TV) was calculated by substituting them into the following equation, and once the tumor size was no less than 2 cm, the mice were sacrificed. TV (mm^3)=(W^2×L)/2 [Equation 1]
# MDA-MB-231 cells = experiment: Cancer cell killing, GI-101 and Ribociclib, MDA-MB-231 with PBMCs; assay type: cell-based, human; conditions: GI-101 100 nM, Ribociclib 913 nM, 24 hours, compared with co-culturing only cancer cells and PBMCs
# Text: This experiment was to evaluate the effect of killing cancer cells by treating MDA-MB-231 cells (human breast cancer cells) with the test substance GI-101 alone or in combination with Ribociclib substance in an in vitro environment.
# MDA-MB-231 cells were purchased from the Korea cell line bank and cultured in RPMI1640 medium (Gibco) containing 10% FBS (Gibco) and 1% antibiotic/antifungal agent (Gibco). For use in cancer cell killing test, the cells were harvested using trypsin (Gibco), and then suspended in RPMI1640 medium, and then dead cells and debris were removed using Ficoll (GE Healthcare Life Sciences) solution. The cells suspended in RPMI1640 medium were carefully layered on ficoll solution. […]
# In order to identify the effect of killing the cells, a CytoTox Green reagent ([…]™ CytoTox Green, Satorius) that binds to the DNA of cells to be killed was prepared in 1 μl per 1 mL of RPMI1640 medium containing 5% human AB serum (Sigma). The prepared medium was used for dilution of the test substance, and the effect of killing the cells could be quantitatively identified by staining the cells to be killed when the test substance was co-cultured with cancer cell lines and PBMCs. […]
SMILES,survival rate (MC38 cells) [%],effect of killing cancer cells (MDA-MB-231 cells)
"Cc1ccc2c(=O)c3cccc(CC(=O)O)c3oc2c1C [DMXAA, reference compound]",60,–
"CN(C)C(=O)c1cc2cnc(Nc3ccc(N4CCNCC4)cn3)nc2n1C1CCCC1 [Ribociclib, reference compound]",–,excellent effect of killing cancer cells
